Data set [1] concerns the target T1, ACE2 (Homo sapiens, UniProt Q9BYF1). The experiment in a line: LC–MS ACE2 proteolytic cleavage assay. The class given is in vitro ADME. To be noted: for Cleavage (%) by ACE2, 10 μM: peptide 10 μM incubated with ACE2 at 37 °C; for Cleavage (%) by ACE2, 10 μM / Cleavage (%) by ACE2, 100 μM: typically 4-5 h (5 h); for Cleavage (%) by ACE2, 10 μM / Cleavage (%) by ACE2, 100 μM / Cleavage (%) by ACE2, 1 μM: LC–MS; for Cleavage (%) by ACE2, 100 μM: peptide 100 μM incubated with ACE2 at 37 °C; for Cleavage (%) by ACE2, 1 μM: peptide 1 μM incubated with ACE2 at 37 °C, typically 4-5 h. On the procedure:
The first hour of the incubation was performed in the Fluorostar Optima plate reader in order to confirm previously observed level of inhibition, then for the remaining time the samples were transferred to small microfuge tubes and incubated in a water bath. The extent of ACE2 cleavage was assessed by LC–MS on an Agilent capillary HP1100, MSD VL3000 Ion-Trap system.

The target in data set [2] is T1, ACE2. Kind of data set: ACE2 quenched fluorescence substrate (QFS) inhibition assay. To be noted: for Inhibition (%) of ACE2, AngII chimeras, 1 μM / inhibition at 1 µM: peptide 1 μM; for Inhibition (%) of ACE2, AngII chimeras, 100 μM / inhibition at 100 µM: peptide 100 μM; for inhibition at 0.1 µM: peptide 0.1 μM, read-out: Inhibition (%) of ACE2, AngII chimeras, 0.1 μM; for inhibition at 1 µM: read-out: Inhibition (%) of ACE2, AngII chimeras, 1 μM. Type of data set: biochemical. On the procedure:
Angiotensin converting enzyme 2 QFS assays were performed for 1 h in 50 uM QFS, 1 M NaCl, 100 mM Tris-Cl, pH 6.5 at 37∘C on a BMG LabTechnologies (Offenburg, Germany), FLUOStar Optima in a 96 well-plate. Subsequent data analysis determined the inhibition of native AngII, its analogs and C-terminal peptides compared to the ACE2 QFS substrate [MCA-APK(DNP)-OH, [Vickers et al., 2002]]. […] Three controls were included in each ACE2 QFS assay; AngII (100 and 10 μM), IHPF (100 μM) and a known ACE2 inhibitor (1 nM; Millennium Pharmaceuticals, Cambridge, MA, USA). QFS assay results were accepted when ACE2 inhibition by AngII (10 μM) was 80 ± 5%, IHPF was 65 ± –5% and the ([Qian et al., 1999]) ‘Millennium Inhibitor’ was 70 ± –5%. Acceptable coefficients of variation (CV; standard deviation/mean × 100) for sample triplicates were <7%.
A library of 40 tetrapeptides based on the four C-terminal residues of Ang II (Ile-His-Pro-Phe/IHPF) was generated and screened for ACE2 binding at 100 μM in order to identify key residues of the C-terminus of Ang II involved in binding to the ACE2 active site. […] Several substitutions (Val, Tyr, Ala, Gly, Phe, Trp, Pro, His, Ile, and Leu) were made in order to further probe the highly hydrophobic and cyclic specificity of the C-terminus of Ang II. A β-napthalene amino acid (Nth) derivative was used as a highly hydrophobic non-natural cyclic residue substitute, and Arg and Lys were substituted for histidine at the second position from the N-terminus of the tetrapeptide to determine if positive charge or other structural or positional requirements were important.

Data set [3] deals with T2, AT1R (Rattus norvegicus, UniProt P25095).
T2 construct: HA; expressed in transfected cells
T2 sequence (P25095 1-359): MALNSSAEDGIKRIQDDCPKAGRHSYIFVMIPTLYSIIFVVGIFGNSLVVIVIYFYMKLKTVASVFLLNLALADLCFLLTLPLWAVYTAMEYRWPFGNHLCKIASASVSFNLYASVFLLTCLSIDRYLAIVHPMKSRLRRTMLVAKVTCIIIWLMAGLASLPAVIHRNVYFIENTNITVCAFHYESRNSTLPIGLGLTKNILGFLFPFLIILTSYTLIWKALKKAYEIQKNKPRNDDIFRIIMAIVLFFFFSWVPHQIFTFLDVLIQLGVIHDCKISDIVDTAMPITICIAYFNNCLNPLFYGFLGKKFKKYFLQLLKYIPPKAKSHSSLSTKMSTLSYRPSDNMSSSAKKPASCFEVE
The experiment in a line: Whole cell competition binding with [125I]-Ang II, AT1R-transfected HEK-293 cells. Conditions: relative binding, displacement of 125I-Ang II in AT1R-transfected HEK-293 cells; 100 nM (Table 6). On the procedure: The generation of plasmids expressing HA-tagged versions of the AT1R and AT2R have been previously described [Qian et al. (1999)], [D’Amore et al. (2005)]. HEK-293 cells in 12 well-plates were transfected with either AT1R or AT2R plasmids (0.6 μg/well) using lipofectAMINE (4⋅8 μl/well), as previously described [Thomas et al. (1998)] and stably expressing clones obtained by selection with G418 (1 mg/ml) and limiting dilution.
Background: Displacement assays read how much labelled ligand stays bound in the presence of the test substance.

Data set [4] concerns AT2R. The experiment in a line: Whole cell competition binding with [125I]-Ang II, AT2R-transfected HEK-293 cells. Conditions: relative binding, displacement of 125I-Ang II in AT2R-transfected HEK-293 cells; 100 nM (Table 6). On the procedure:
The generation of plasmids expressing HA-tagged versions of the AT1R and AT2R have been previously described [Qian et al. (1999)], [D’Amore et al. (2005)]. HEK-293 cells in 12 well-plates were transfected with either AT1R or AT2R plasmids (0.6 μg/well) using lipofectAMINE (4⋅8 μl/well), as previously described [Thomas et al. (1998)] and stably expressing clones obtained by selection with G418 (1 mg/ml) and limiting dilution. HEK clones expressing either AT1R or AT2R were plated in 12 well-plates for whole cell competition binding assays using the non-selective Ang II ligand, [^125I]-Ang II and selected concentrations of Ang II, PD123319 (an AT2-selective ligand) and the various β-substituted Ang II peptides. Non-linear regression of the data was achieved using GraphPad Prism (GraphPad Software Inc., San Diego, CA, USA) to determine relative displacement of chimeric Ang II analogs as compared to ^125I-Ang II in either AT1R- or AT2R- transfected HEK-293 cells.

Setting [5] is: QFS assay, pH 6.5, 37 °C, 1 h, value ± spread.
Setting [6] is: peptide 10 μM, QFS assay, pH 6.5, 37 °C, 1 h, value ± spread.
[7] abbreviates: peptide 10 μM, QFS assay, pH 6.5, 37 °C, 1 h, value ± spread, read-out: Inhibition (%) of ACE2, AngII chimeras, 10 μM.

Read-outs that look alike come from different tables or passages of the source. Ends that are not written are not given here.

What is called inhibition is the change of the read-out against control, counted positive when it falls.

T1 sequence (Q9BYF1 18-805, species assumed): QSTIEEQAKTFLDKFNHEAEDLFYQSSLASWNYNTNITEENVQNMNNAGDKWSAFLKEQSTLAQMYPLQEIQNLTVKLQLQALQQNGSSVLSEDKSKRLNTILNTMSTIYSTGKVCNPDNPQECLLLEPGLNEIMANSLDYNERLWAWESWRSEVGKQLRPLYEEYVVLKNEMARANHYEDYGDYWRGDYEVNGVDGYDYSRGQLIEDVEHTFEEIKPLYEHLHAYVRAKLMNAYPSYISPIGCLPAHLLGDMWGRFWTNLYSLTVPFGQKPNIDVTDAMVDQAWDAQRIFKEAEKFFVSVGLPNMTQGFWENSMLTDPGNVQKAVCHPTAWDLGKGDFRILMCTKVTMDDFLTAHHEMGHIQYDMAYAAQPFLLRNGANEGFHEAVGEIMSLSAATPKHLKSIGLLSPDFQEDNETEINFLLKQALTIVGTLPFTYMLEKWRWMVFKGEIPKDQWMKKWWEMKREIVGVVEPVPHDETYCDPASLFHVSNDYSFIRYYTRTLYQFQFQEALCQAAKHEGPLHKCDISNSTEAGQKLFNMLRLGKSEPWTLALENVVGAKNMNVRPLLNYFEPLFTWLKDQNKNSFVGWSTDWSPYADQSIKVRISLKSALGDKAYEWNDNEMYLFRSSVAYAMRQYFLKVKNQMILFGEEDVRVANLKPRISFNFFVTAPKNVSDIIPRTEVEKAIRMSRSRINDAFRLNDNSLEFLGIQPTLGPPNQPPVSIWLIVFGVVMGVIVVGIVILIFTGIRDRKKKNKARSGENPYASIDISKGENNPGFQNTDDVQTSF

With DRVYIYβPF, in data set [1], the “Cleavage (%) by ACE2, 10 μM” value amounted to 0 ± 0% and the “Cleavage (%) by ACE2, 100 μM” value is “complete resistance to proteolytic cleavage”. The “Cleavage (%) by ACE2, 100 μM” value in data set [1] (listed as DRVYI YβPF) was found to be 0 ± 0%. In data set [2] (setting [5]), the “Inhibition (%) of ACE2, AngII chimeras, 1 μM” value (“Inhibition (%) of ACE2 … 1 μM” for short) is “–4 ± 9.8%” and the “Inhibition (%) of ACE2, AngII chimeras, 100 μM” value (“Inhibition (%) of ACE2 … 100 μM” below) came to 72 ± 1.5%. In addition, the “Inhibition (%) of ACE2, AngII chimeras, 10 μM” value (“Inhibition (%) of ACE2 … 10 μM” below) in data set [2] (setting [6]) is 10 ± 5.8%. The “AT1R binding (%)” value in data set [3] was 0%. Besides, the “AT2R binding (%)” value in data set [4] worked out at 80%.
For DRVYVYPF, in data set [1] (10 μM, over 5 h), the “fold less cleavage by ACE2 compared to native Ang II” value is listed as “approximately 4 fold”. In data set [1], the “Cleavage (%) by ACE2, 1 μM” value is given as 64% and the “Cleavage (%) by ACE2, 10 μM” value was 9 ± 0.3%. For the same molecule, in data set [2] (setting [5]), the inhibition at 0.1 µM is 31 ± 3.5% and the inhibition at 1 µM turned out to be 84 ± 2.7%. The inhibition at 10 µM in data set [2] (setting [7]) came out at 98 ± 0.3%.
DRVYIYPF: in data set [1], the “Cleavage (%) by ACE2, 1 μM” value is recorded as 85% and the “Cleavage (%) by ACE2, 10 μM” value was 18 ± 1.2%. In addition, in data set [2] (setting [5]), the inhibition at 0.1 µM stood at 17% and the inhibition at 1 µM was found to be 78 ± 2%. Also, the inhibition at 10 µM in data set [2] (setting [7]) came to 96%.
Consider DRVYVYPβF, for which the “Cleavage (%) by ACE2, 100 μM” value in data set [1] is on record as “complete resistance to proteolytic cleavage”. Moreover, in data set [2] (setting [5]), the “Inhibition (%) of ACE2 … 1 μM” value is 2 ± 3.6% and the “Inhibition (%) of ACE2 … 100 μM” value is recorded as 59 ± 2.1%. In addition, the “Inhibition (%) of ACE2 … 10 μM” value in data set [2] (setting [6]) amounted to 15 ± 9%. Further, in data set [3], the “AT1R binding (%)” value is listed as 0%. In data set [4], the “AT2R binding (%)” value came to 25%.
DRVYIYPβF: in data set [1], the “Cleavage (%) by ACE2, 10 μM” value is 0 ± 0% and the “Cleavage (%) by ACE2, 100 μM” value is “complete resistance to proteolytic cleavage”. For the same molecule, the “Cleavage (%) by ACE2, 100 μM” value in data set [1] (listed as DRVYI YPβF) is listed as 0 ± 0%. For the same molecule, in data set [2] (setting [5]), the “Inhibition (%) of ACE2 … 1 μM” value is listed as “–1 ± 6.8%” and the “Inhibition (%) of ACE2 … 100 μM” value amounted to 53 ± 1.9%. Besides, the “Inhibition (%) of ACE2 … 10 μM” value in data set [2] (setting [6]) is “completely abolished”. For the same molecule, the “Inhibition (%) of ACE2 … 10 μM” value in data set [2] (peptide 10 μM, QFS assay, pH 6.5, 37 °C, 1 h, value ± spread, listed as DRVYI YPβF) stood at 0 ± 5%. Further, in data set [3], the “AT1R binding (%)” value came to 30%. Further, the “AT2R binding (%)” value in data set [4] is reported as 25%.
Turning to DRVYVYβPF, in data set [1], the “Cleavage (%) by ACE2, 10 μM” value is 0 ± 0% and the “Cleavage (%) by ACE2, 100 μM” value is reported as “complete resistance to proteolytic cleavage”. Besides, the “Cleavage (%) by ACE2, 100 μM” value in data set [1] (listed as DRVY VYβPF) worked out at 0 ± 0%. In data set [2] (setting [5]), the “Inhibition (%) of ACE2 … 1 μM” value is 0 ± 11.4% and the “Inhibition (%) of ACE2 … 100 μM” value is on record as 90 ± 0.6%. In data set [2] (setting [6]), the “Inhibition (%) of ACE2 … 10 μM” value came out at 42 ± 4.4%. Moreover, the “AT1R binding (%)” value in data set [3] came to 0%. For the same molecule, the “AT2R binding (%)” value in data set [4] stood at 75%.
Consider `CC[C@H](C)[C@H](NC(=O)[C@H](Cc1ccc(O)cc1)NC(=O)[C@@H](NC(=O)[C@H](CCCNC(=N)N)NC(=O)[C@@H](N)CC(=O)O)C(C)C)C(=O)N[C@@H](Cc1cnc[nH]1)C(=O)N1CCC[C@H]1C(=O)N[C@@H](Cc1ccccc1)C(=O)O` [Angiotensin II, reference compound], for which the “Cleavage (%) by ACE2, 1 μM” value in data set [1] is given as 93%. For the same molecule, the “Cleavage (%) by ACE2, 10 μM” value was 40 ± 2% in data set [1] (listed as D1R2V3Y4I5H6P7F8) and 40% in data set [1] (listed as native Ang II). Also, the inhibition at 0.1 µM in data set [2] (setting [5]) was -5%. The inhibition at 1 µM in data set [2] (setting [5]) stood at 21 ± 6.8%. The inhibition at 10 µM in data set [2] (setting [7]) amounted to 77 ± 2.9%; in data set [2] (read-out: ACE2 inhibition by control, acceptance window of QFS assay), 80 ± 5%. Moreover, the inhibition at 100 µM in data set [2] (50 uM QFS, 1 M NaCl, 100 mM Tris-Cl pH 6.5, 37 °C, 1 h, triplicate, read-out: Inhibition (%) of ACE2, single and multiple residue substitution analogs (Table 2)) is 97%; in data set [2] (QFS assay, pH 6.5, 37 °C, 1 h, value ± spread, read-out: Inhibition (%) of ACE2, AngII chimeras, 100 μM), 99 ± 0.3%.

These data come from PMC4311625, “Structural determinants for binding to angiotensin converting enzyme 2 (ACE2) and angiotensin receptors 1 and 2” (Frontiers in Pharmacology, 2015).
